Patent publication US10206878B2, “Lyophilized formulation of TAT-NR2B9C with acetylation scavenger” (NoNO Inc., priority 2014, dated 2019)
No end group written: not given here.

Assay: Solubility study of TAT-NR2B9C, visual analysis
Type: physicochemical
Conditions: pH 6.5, 35, 50, 75 and 100 mg/mL, t=0 and t=24 hours
Experimental: Due to the relatively low Tg temperatures that would likely require a longer lyophilization cycle to dry, we looked at a wider range of standard bulking agents and looked to reduce the fill volume into the container closure system so that there would be a reduced volume of liquid to lyophilize. […] Samples were visually analyzed at 35, 50, 75 and 100 mg/mL. All solutions were clear at t=0 and t=24 hours. […] A wide range of quantities may be required in a vial, but 270 mg would provide a […] dose for a 100 kg patient. Assuming the target reconstitution concentration for patient administration is still 20 mg/mL (but can be from 1 mg/ml to 100 mg/ml), then a 20-mL lyophilization vial containing 270 mg of TAT-NR2B9C can be used with a reconstitution volume of 13.5 mL. Therefore, optimal volumes of liquid for lyophilization of TAT-NR2B9C in the vial would be between 2.5 mL and 10 mL.

Sequence: YGRKKRRQRRRKLSSIESDV [TAT-NR2B9C]
- solubility, visual (in Histidine+Trehalose): clear
- solubility, visual (in Histidine): clear
